≈ marks a conversion by molar mass, not a printed value. Where “and” joins values, the source holds several entries; their conditions need not be identical. Equal values may be shown once. Read-outs that look alike come from different tables or passages of the source.
Experiments:
Assay type in all cases: cell-based
[1] = tested on: Torulopsis glabrata JHC-BC9951635; assay: In vitro study of inhibition of growth and lethality against yeast (MIC/MLC susceptibility test), isolate E; settings: for MIC: Nakaseomyces glabratus; for MIC / Minimum Inhibitory Conc. (MIC), 48 hr. / Minimum Inhibitory Conc. (MIC), 24 hr.: isolate assigned by line order; for Minimum Lethal Concentration (MLC), E: Table 4B summary, isolate E
[2] = tested on: Candida tropicalis ATCC 750; assay: In vitro study of inhibition of growth and lethality against yeast (MIC/MLC susceptibility test), isolate A; settings: for Minimum Lethal Concentration (MLC), A: Table 4B summary, isolate A
[3] = tested on: Cryptococcus neoformans SLP-BC0012854; assay: In vitro study of inhibition of growth and lethality against yeast (MIC/MLC susceptibility test), isolate H; settings: for Minimum Lethal Concentration (MLC), H: Table 4B summary, isolate H
[4] = tested on: Candida albicans KJP-000531594; assay: In vitro study of inhibition of growth and lethality against yeast (MIC/MLC susceptibility test), isolate C; settings: for Minimum Inhibitory Conc. (MIC), 48 hr. / MIC / Minimum Inhibitory Conc. (MIC), 24 hr.: Candida albicans; for Minimum Lethal Concentration (MLC), C: Table 4B summary, isolate C
[5] = tested on: Cryptococcus neoformans DLB-1027594CNC; assay: In vitro study of inhibition of growth and lethality against yeast (MIC/MLC susceptibility test), isolate G; settings: for MIC: DLB1027594CNC; for Minimum Lethal Concentration (MLC), G: Table 4B summary, isolate G
[6] = tested on: Candida tropicalis ATCC 28707; assay: In vitro study of inhibition of growth and lethality against yeast (MIC/MLC susceptibility test), isolate B; settings: for Minimum Lethal Concentration (MLC), B: Table 4B summary, isolate B
[7] = tested on: Candida albicans LH-000664533; assay: In vitro study of inhibition of growth and lethality against yeast (MIC/MLC susceptibility test), isolate D; settings: for Minimum Lethal Concentration (MLC), D: Table 4B summary, isolate D
[8] = tested on: Torulopsis glabrata ERH-BC9938274; assay: In vitro study of inhibition of growth and lethality against yeast (MIC/MLC susceptibility test), isolate F; settings: for MIC: Nakaseomyces glabratus; for Minimum Inhibitory Conc. (MIC), 24 hr.: read at 24 hr; for Minimum Lethal Concentration (MLC), F: Table 4B summary, isolate F
[9] = Torulopsis glabrata, 2nd pair of lines, read at 48 hr
[10] = 1st pair of lines, read at 48 hr, isolate assigned by line order
[11] = Cryptococcus neoformans, 1st pair of lines, read at 72 hr, isolate assigned by line order
[12] = Torulopsis glabrata, 2nd pair of lines, read at 24 hr
[13] = Torulopsis glabrata, 1st pair of lines, isolate assigned by line order
[14] = 1st pair of lines, read at 24 hr, isolate not given, assigned by line order and MLC of Table 4B

OC(Cn1cncn1)(Cn1cncn1)c1ccc(F)cc1F [Fluconazole]
MIC ([1]; JHCBC9951635, 24 h, Torulopsis glabrata, 2nd pair of lines, read at 24 hr, read-out: Minimum Inhibitory Conc. (MIC), 24 hr.): 2 µg/mL (≈ 6.53 µM)
MIC ([1]; JHCBC9951635, 48 h, Torulopsis glabrata, 2nd pair of lines, read at 48 hr, read-out: Minimum Inhibitory Conc. (MIC), 48 hr.): 8 µg/mL (≈ 26.1 µM)
Minimum Inhibitory Conc. (MIC), 48 hr. [1, 9]: 4 µg/mL
MIC ([2]; Candida tropicalis, ATCC750, 24 h, Candida tropicalis, 2nd pair of lines, read at 24 hr, isolate assigned by line order, read-out: Minimum Inhibitory Conc. (MIC), 24 hr.): 1 µg/mL (≈ 3.27 µM)
MIC ([2]; Candida tropicalis, ATCC750, 48 h, Candida tropicalis, 2nd pair of lines, read at 48 hr, isolate assigned by line order, read-out: Minimum Inhibitory Conc. (MIC), 48 hr.): 4 µg/mL (≈ 13.1 µM)
MIC ([3]; Cryptococcus neoformans, SLPBC0012854, 48 h, Cryptococcus neoformans, 2nd pair of lines, read at 48 hr, isolate assigned by line order, read-out: Minimum Inhibitory Conc. (MIC), 48 hr.): 4 µg/mL (≈ 13.1 µM)
MIC ([3]; Cryptococcus neoformans, SLPBC0012854, 72 h, Cryptococcus neoformans, 2nd pair of lines, read at 72 hr, isolate assigned by line order, read-out: Minimum Inhibitory Conc. (MIC), 72 hr.): 4 µg/mL (≈ 13.1 µM)
Minimum Inhibitory Conc. (MIC), 48 hr. [4, 10]: 2 µg/mL
MIC ([4]; KJP000531594, 24 h, 1st pair of lines, read at 24 hr, isolate not given, assigned by line order and MLC of Table 4B, read-out: Minimum Inhibitory Conc. (MIC), 24 hr.): 0.5 µg/mL (≈ 1.63 µM)
MIC ([4]; KJP000531594, 48 h, 1st pair of lines, read at 48 hr, isolate assigned by line order, read-out: Minimum Inhibitory Conc. (MIC), 48 hr.): 1 µg/mL (≈ 3.27 µM)
Minimum Inhibitory Conc. (MIC), 72 hr. [5, 11]: 64 µg/mL
MIC ([5]; Cryptococcus neoformans, 48 h, Cryptococcus neoformans, 1st pair of lines, read at 48 hr, isolate assigned by line order, read-out: Minimum Inhibitory Conc. (MIC), 48 hr.): > 64 µg/mL
MIC ([5]; Cryptococcus neoformans, 72 h, Cryptococcus neoformans, 1st pair of lines, read at 72 hr, isolate assigned by line order, read-out: Minimum Inhibitory Conc. (MIC), 72 hr.): > 64 µg/mL

COC(=O)c1cc2cc(OCc3ccccc3)ccc2n1CCCCCCCCC[n+]1ccccc1 [Compound 230]
MIC ([6]; Candida tropicalis, ATCC28707, 24 h, read-out: Minimum Inhibitory Conc. (MIC), 24 hr.): 0.5 µg/mL
MIC ([6]; Candida tropicalis, ATCC28707, 48 h, read-out: Minimum Inhibitory Conc. (MIC), 48 hr.): 0.5 µg/mL
MIC ([7]; Candida albicans, LH000664533, 24 h, read-out: Minimum Inhibitory Conc. (MIC), 24 hr.): 1 µg/mL
MIC ([7]; Candida albicans, LH000664533, 48 h, read-out: Minimum Inhibitory Conc. (MIC), 48 hr.): 1 µg/mL
MIC ([1]; JHCBC9951635, 24 h, read-out: Minimum Inhibitory Conc. (MIC), 24 hr., Torulopsis glabrata, 2nd pair of lines, read at 24 hr): 1 µg/mL
MIC ([1]; JHCBC9951635, 48 h, read-out: Minimum Inhibitory Conc. (MIC), 48 hr., Torulopsis glabrata, 2nd pair of lines, read at 48 hr): 2 µg/mL
Minimum Inhibitory Conc. (MIC), 24 hr. [1, 12]: 2 µg/mL
MIC ([8]; ERHBC9938274, 24 h, read-out: Minimum Inhibitory Conc. (MIC), 24 hr., Torulopsis glabrata, 1st pair of lines, read at 24 hr, isolate assigned by line order): 1 µg/mL
MIC ([8]; ERHBC9938274, 48 h, read-out: Minimum Inhibitory Conc. (MIC), 48 hr., Torulopsis glabrata, 1st pair of lines, read at 48 hr, isolate assigned by line order): 2 µg/mL
Minimum Inhibitory Conc. (MIC), 24 hr. [8, 13]: 2 µg/mL
MIC ([2]; Candida tropicalis, ATCC750, 24 h, read-out: Minimum Inhibitory Conc. (MIC), 24 hr.): 1 µg/mL
MIC ([2]; Candida tropicalis, ATCC750, 48 h, read-out: Minimum Inhibitory Conc. (MIC), 48 hr.): 1 µg/mL
MIC ([3]; Cryptococcus neoformans, SLPBC0012854, 48 h, read-out: Minimum Inhibitory Conc. (MIC), 48 hr.): 1 µg/mL
MIC ([3]; Cryptococcus neoformans, SLPBC0012854, 72 h, read-out: Minimum Inhibitory Conc. (MIC), 72 hr.): 1 µg/mL
Minimum Inhibitory Conc. (MIC), 24 hr. [4, 14]: 0.5 µg/mL
MIC ([4]; KJP000531594, 24 h, read-out: Minimum Inhibitory Conc. (MIC), 24 hr., Candida albicans, 1st pair of lines, read at 24 hr, isolate not given, assigned by line order and MLC of Table 4B): 1 µg/mL
MIC ([4]; KJP000531594, 48 h, read-out: Minimum Inhibitory Conc. (MIC), 48 hr., Candida albicans, 1st pair of lines, read at 48 hr, isolate assigned by line order): 1 µg/mL
MIC ([5]; Cryptococcus neoformans, 48 h, read-out: Minimum Inhibitory Conc. (MIC), 48 hr.): 1 µg/mL
MIC ([5]; Cryptococcus neoformans, 72 h, read-out: Minimum Inhibitory Conc. (MIC), 72 hr.): 1 µg/mL

COC(=O)c1cc2cc(OCc3ccccc3)ccc2n1CCCCCCOC(=O)c1cccnc1 [Compound 0951]
Minimum Lethal Concentration (MLC), B [6]: 1 µg/mL
Minimum Lethal Concentration (MLC), D [7]: 2 µg/mL
Minimum Lethal Concentration (MLC), E [1]: 2 µg/mL
Minimum Lethal Concentration (MLC), F [8]: 2 µg/mL
Minimum Lethal Concentration (MLC), A [2]: 1 µg/mL
Minimum Lethal Concentration (MLC), H [3]: 4 µg/mL
Minimum Lethal Concentration (MLC), C [4]: 1 µg/mL
Minimum Lethal Concentration (MLC), G [5]: 4 µg/mL

Fc1cc(F)c2[nH]c(CCCC[n+]3cccc4ccccc43)cc2c1 [Compound 0409]
Minimum Lethal Concentration (MLC), B [6]: 0.5 µg/mL
Minimum Lethal Concentration (MLC), D [7]: 1 µg/mL
Minimum Lethal Concentration (MLC), E [1]: 2 µg/mL
Minimum Lethal Concentration (MLC), F [8]: 2 µg/mL
Minimum Lethal Concentration (MLC), A [2]: 1 µg/mL
Minimum Lethal Concentration (MLC), H [3]: 2 µg/mL
Minimum Lethal Concentration (MLC), C [4]: 1 µg/mL
Minimum Lethal Concentration (MLC), G [5]: 2 µg/mL

C[C@@H]1[C@H](O)[C@@H](C)/C=C/C=C/C=C/C=C/C=C/C=C/C=C/[C@H](O[C@@H]2O[C@H](C)[C@@H](O)[C@H](N)[C@@H]2O)C[C@@H]2O[C@](O)(C[C@@H](O)C[C@@H](O)[C@H](O)CC[C@@H](O)C[C@@H](O)CC(=O)O[C@H]1C)C[C@H](O)[C@H]2C(=O)O [Amphotericin B]
Minimum Inhibitory Conc. (MIC), 24 hr. ([6]; Candida tropicalis, 1st pair of lines, read at 24 hr, isolate assigned by line order): 2 µg/mL
Minimum Inhibitory Conc. (MIC), 48 hr. ([6]; Candida tropicalis, 1st pair of lines, read at 48 hr, isolate assigned by line order): 4 µg/mL
Minimum Inhibitory Conc. (MIC), 24 hr. ([7]; Candida albicans, 2nd pair of lines, read at 24 hr, isolate assigned by line order): 0.5 µg/mL
Minimum Inhibitory Conc. (MIC), 48 hr. ([7]; Candida albicans, 2nd pair of lines, read at 48 hr, isolate assigned by line order): 0.5 µg/mL
Minimum Inhibitory Conc. (MIC), 24 hr. [1, 12]: 0.5 µg/mL
Minimum Inhibitory Conc. (MIC), 48 hr. [1, 9]: 1 µg/mL and 0.5 µg/mL
Minimum Inhibitory Conc. (MIC), 24 hr. [8, 13]: 0.5 µg/mL
Minimum Inhibitory Conc. (MIC), 48 hr. ([8]; Torulopsis glabrata, 1st pair of lines, read at 48 hr, isolate assigned by line order): 1 µg/mL
Minimum Inhibitory Conc. (MIC), 24 hr. ([2]; Candida tropicalis, 2nd pair of lines, read at 24 hr, isolate assigned by line order): 0.5 µg/mL
Minimum Inhibitory Conc. (MIC), 48 hr. ([2]; Candida tropicalis, 2nd pair of lines, read at 48 hr, isolate assigned by line order): 0.5 µg/mL and 1 µg/mL
Minimum Inhibitory Conc. (MIC), 48 hr. ([3]; Cryptococcus neoformans, 2nd pair of lines, read at 48 hr, isolate assigned by line order): 0.5 µg/mL and 0.25 µg/mL
Minimum Inhibitory Conc. (MIC), 24 hr. [4, 14]: 0.5 µg/mL
Minimum Inhibitory Conc. (MIC), 48 hr. [4, 10]: 1 µg/mL
Minimum Inhibitory Conc. (MIC), 48 hr. ([5]; Cryptococcus neoformans, 1st pair of lines, read at 48 hr, isolate assigned by line order): 0.25 µg/mL
Minimum Inhibitory Conc. (MIC), 72 hr. [5, 11]: 0.25 µg/mL

Reference: patent US6673827B1, “Methods of treating fungal infections with inhibitors of NAD synthetase enzyme” (priority 1999, dated 2004)
